The source made the active and inactive calls. The calls are words filed in the database; no cut-off is given here.

For assay [1], the system named is MCF7. Put plainly: Induction of apoptosis in human MCF7 cells assessed as PARP cleavage after 48 hrs by Western blot analysis. The assay is classed as functional, cell-based.
For assay [2], the target named is Actin, cytoplasmic 1 (Homo sapiens) (UniProt P60709). Description: Inhibition of actin organization in human MCF7 cells transfected with GFP-tagged human beta-actin assessed as reduction of g-actin monomers at 100 nM after 30 mins by FRAP method. Format: cell-based.
The test system of assay [3] is MCF7. Put plainly: Induction of apoptosis in human MCF7 cells after 24 hrs using propidium iodide by flow cytometry. The assay is classed as functional, cell-based. On the technique in general: In flow cytometry, cells or beads pass a laser one at a time.
The subject of assay [4] is MDA-MB-231. Description: Antiproliferative activity against human MDA-MB-231 cells after 72 hrs by CellTiter-Blue assay. Format: functional, cell-based. (Alamar Blue is a resazurin reagent that responds to reducing activity.)
The test system of assay [5] is MCF7. Put plainly: Induction of apoptosis in human MCF7 cells assessed as reduction of pro-caspase9 level after 48 hrs by Western blot analysis. Format: functional, cell-based. In general terms: A western blot detects proteins with antibodies after separation by electrophoresis.
Assay [6] deals with Actin, cytoplasmic 1 (Homo sapiens) (UniProt P60709). Description: Inhibition of actin organization in human MCF7 cells transfected with GFP-tagged human beta-actin assessed as formation of actin aggregates at 300 to 500 nM after 24 hrs by FRAP method. The assay is classed as cell-based.
Assay [7] deals with MDA-MB-231. Description: Induction of apoptosis in human MDA-MB-231 cells after 24 hrs using propidium iodide by flow cytometry. The assay is classed as functional, cell-based.
Assay [8] deals with Actin, cytoplasmic 1 (Homo sapiens) (UniProt P60709). Put plainly: Inhibition of actin organization in human MDA-MB-231 cells transfected with GFP-tagged human beta-actin assessed as formation of actin aggregates at 300 to 500 nM after 24 hrs by FRAP method. Format: cell-based.
In assay [9] the test system is MCF7. Description: Antiproliferative activity against human MCF7 cells after 72 hrs by CellTiter-Blue assay. Format: functional, cell-based.
Assay [10] addresses Actin, cytoplasmic 1 (Homo sapiens) (UniProt P60709). Put plainly: Inhibition of actin organization in human MDA-MB-231 cells transfected with GFP-tagged human beta-actin assessed as reduction of actin stress fibers at 100 nM after 24 hrs by FRAP method. The assay is classed as cell-based.
Assay [11] concerns MDA-MB-231. Put plainly: Induction of apoptosis in human MDA-MB-231 cells assessed as PARP cleavage after 48 hrs by Western blot analysis. Format: functional, cell-based.
Assay [12] deals with MDA-MB-231. Put plainly: Antimigratory activity against human MDA-MB-231 cells up to 10 hrs. The assay is classed as functional, cell-based.
The test system of assay [13] is MDA-MB-231. Description: Induction of apoptosis in human MDA-MB-231 cells assessed as reduction of pro-caspase9 level after 48 hrs by Western blot analysis. Format: functional, cell-based.
Assay [14] deals with Actin, cytoplasmic 1 (Homo sapiens) (UniProt P60709). Description: Inhibition of actin organization in human MCF7 cells transfected with GFP-tagged human beta-actin assessed as formation of actin aggregates at 300 nM after 30 mins by FRAP method. The assay is classed as cell-based.
Assay [15] has the same target. Put plainly: Inhibition of actin organization in human MCF7 cells transfected with GFP-tagged human beta-actin assessed as reduction of actin stress fibers at 100 nM after 24 hrs by FRAP method. The assay is classed as cell-based.

Consider `CC(C)[C@@H]1C[C@H](O)[C@H](C)C[C@H](C)C[C@H](C)C(=O)NCC(=O)N(C)[C@H](Cc2ccc(O)c(I)c2)C(=O)O1`, for which the outcome in the assay on MCF7 [1] and in the assay on MDA-MB-231 [11] was Active. The inhibition result in assay [2], in assay [6], in assay [8], in [10], in assay [14] and in [15] was “Active” each time. Further, the Activity result with MCF7 [3], in the assay with MCF7 [5], with MDA-MB-231 [7] and with MDA-MB-231 [13] was “Dose-dependent effect” each time. Besides, the inhibition result with MDA-MB-231 [4], with MCF7 [9] and in the assay on MDA-MB-231 [12] was “Dose-dependent effect” throughout. Further, the concentration for half-maximal inhibition (IC50) with MDA-MB-231 [4] (MDA-MB-231, 72 h) is 77 nM; in the assay with MCF7 [9] (MCF7, 72 h), 93 nM.

A word on the IC50: it is the concentration needed to halve the response being measured.

The values above are taken from ChEMBL document CHEMBL3352066, “Pharmacological characterization of actin-binding (-)-doliculide” (Bioorg Med Chem, 2014).
